Biological target: T1, CDK2 (Homo sapiens, UniProt P24941)
T1 construct: CDK2/GST-Cyclin E kinase complex produced in baculovirus expression system; with Cyclin E (GST-Cyclin E)
Assay: radiometric kinase assay (gamma-32P-ATP, histone H1 substrate) with purified recombinant CDK2/cyclin E
Type: biochemical

Structure (SMILES) | IC50 [µM]
O=c1[nH]c2c(nc3ccccn32)c2cccc(O)c12 [13-1-e] | 1 to 2
O=c1[nH]c2c(nc3ccccn32)c2ccccc12 [13-1-a] | ~100

— PMC2633036, “Identifying Tumor Cell Growth Inhibitors by Combinatorial Chemistry and Zebrafish Assays” (PLoS ONE, 2009)
